Data: patent publication US10149809B2, “Skin aging inhibitor and concentrate of resveratrol 3-O-α-glucoside” (priority 2014, dated 2018)

Tests used:
[1] = Absorption when orally ingested: converted resveratrol concentration in plasma; type: in vivo, human
Procedure: Blood concentrations of resveratrol metabolites when resveratrol 3-O-α-glucoside and resveratrol 3-O-β-glucoside were orally ingested were examined, and the absorption properties of resveratrol 3-O-α-glucoside and resveratrol 3-O-β-glucoside were compared.
To 100 mL of water, 86 mg of resveratrol 3-O-α-glucoside or resveratrol 3-O-β-glucoside (Tokyo Chemical Industry Co., Ltd.) was added, and the mixture was stirred for 1 minute. The resulting solution was orally ingested by a subject at a time. Blood was collected prior to, 30 minutes after, and 1, 2, 3, and 4 hours after the ingestion, and the plasma was separated by centrifugation. The test was performed three times for each of the samples. In order to quantify the amount of resveratrol derivatives in the collected plasma samples, 10 μL of β-glucronidase Type H-2 from Sigma-Aldrich Co. LLC. (glucuronidase activity: 115003 units/mL, sulfatase activity: 556 units/mL; a 5-fold diluted solution in a 100 mM acetate buffer solution (pH 5.5)) was added to 10 μL of the collected plasma, and enzyme treatment was performed at 37° C. for about 18 hours. After the reaction, 80 μL of 60% acetonitrile was added, and subsequently 100 μL of water was further added thereto, and the mixture was stirred. The filtrate obtained by filtering through a membrane (0.45 μm) was subjected to HPLC analysis. A converted resveratrol concentration was determined by converting the concentration of resveratrol derivatives in each of the plasma samples into the concentration of resveratrol, and maximum blood concentrations and areas under the curve (AUCs) 0 to 4 hours after the ingestion were determined.

[2] = Solubility in solvent containing propylene glycol; type: physicochemical
Procedure: (§1) Approximately 40 mg each of resveratrol 3-O-α-glucoside, resveratrol (Tokyo Chemical Industry Co., Ltd.), and resveratrol 3-O-β-glucoside (Tokyo Chemical Industry Co., Ltd.) was weighed, approximately 70 mg of a solvent (whose composition is shown in Table 18) containing ethanol (Wako Pure Chemical Industries, Ltd.) was added thereto, and the mixture was soaked in a water bath at 25° C. under light-tight conditions, and incubated for 15 hours with occasional stirring. After 15 hours, each of the samples was filtered through a 0.45 μm centrifugal filter, and then the concentration of each of the components in the filtrate was analyzed using HPLC under the same conditions as those described in Production Example 1 above. The dissolved concentration (w/v %) at 25° C. was thus determined.
The solubility of resveratrol 3-O-α-glucoside was evaluated under the same conditions as those described in Example 18 above, except that a solvent (whose composition is shown in Table 20) containing propylene glycol (Wako Pure Chemical Industries, Ltd.) was used.

Solubility in water = type: physicochemical
Procedure: as §1, with “5” for “40”, “1 mL” for “70 mg”, “water” for “a solvent (whose composition is shown in Table 18) containing ethanol (Wako Pure Chemical Industries, Ltd.)”, “20” for “15”, “%) in water” for “%)”

[3] = Solubility in solvent containing dipropylene glycol; type: physicochemical
Procedure: as §1
The solubility of resveratrol 3-O-α-glucoside was evaluated under the same conditions as those described in Example 18 above, except that a solvent (whose composition is shown in Table 22) containing dipropylene glycol (Asahi Glass Co., Ltd.) was used.

[4] = Solubility in solvent containing 1,2-hexanediol; type: physicochemical
Procedure: as §1
The solubility of resveratrol 3-O-α-glucoside was evaluated under the same conditions as those described in Example 18 above, except that a solvent (whose composition is shown in Table 24) containing 1,2-hexanediol (Kankosha Co., Ltd.) was used.

[5] = test system: matrix metalloproteinase 9 (MMP9) gene; assay: MMP9 gene expression in the epidermis (three-dimensional human skin model); type: cell-based; settings: 100 μL, 8 hours, distilled water control = 100%
Procedure: Using a three-dimensional human skin model, the effect of resveratrol 3-O-α-glucoside on the matrix metalloproteinase 9 (MMP9) gene expression in the epidermis was investigated.
An aqueous solution containing resveratrol 3-O-α-glucoside at a concentration of 0.02 or 0.1 wt %, or containing resveratrol 3-O-β-glucoside at a concentration of 0.02 wt % was prepared, and the resulting solution was used as a sample solution. One-hundred microliters of the sample solution were administered to the horny layer side of the human skin model (EpiDerm EPI-200; MatTek), and cultured in 5 mL of a special medium (EPI-100-ASY) at 37° C. for 8 hours. After the culture, total RNA was extracted from the skin model, and the level of expression of the MMP9 gene was quantified by real time PCR. As a control group, distilled water was administered to a skin model instead of the sample solution, and total RNA collected from the skin model was used.
Taking as 100% the level of expression of the MMP9 gene for the control group, a relative ratio of the expression level of the MMP9 gene for the resveratrol 3-O-α-glucoside- or resveratrol 3-O-β-glucoside-supplemented group (MMP9 gene expression ratio, %) was determined. In the measurement of the expression level of the MMP9 gene, PPIA was used for internal standard correction.

[6] = Solubility in solvent containing glycerol; type: physicochemical
Procedure: as §1
The solubility of resveratrol 3-O-α-glucoside was evaluated under the same conditions as those described in Example 18 above, except that a solvent (whose composition is shown in Table 19) containing glycerol (Wako Pure Chemical Industries, Ltd.) was used.

[7] = EpiDerm EPI-200, 0.02 wt % aqueous solution

Q: With OC[C@H]1O[C@H](Oc2cc(O)cc(C=Cc3ccc(O)cc3)c2)[C@H](O)[C@@H](O)[C@@H]1O [Resveratrol 3-O-α-Glucoside, resveratrol 3-O-α-glucoside] as the compound, how does the “AUC relative to resveratrol 3-O-β-glucoside” value ([1]; human, in vivo, po, 86 mg) read?
A: 2.8 times

Q: And the dissolved concentration [2]?
A: exceeded 30 w/v %

Q: And the “Dissolved Concentration (w/v %) at 25° C.” value ([2]; 15 h)?
A: 0.3 w/v %

Q: What about the “Dissolved Concentration (μg/mL) in Water” value (Solubility in water; 20 h) of the same compound?
A: 2900 µg/mL

Q: What about the dissolved concentration [3] of the same compound?
A: exceeded 30 w/v %

Q: And the dissolved concentration [4]?
A: exceeded 25 w/v %

Q: What about the “MMP9 Gene Expression Ratio (%)” value [5, 7] of the same compound?
A: 85%

Q: What about the “MMP9 Gene Expression Ratio (%)” value ([5]; EpiDerm EPI-200, 0.1 wt % aqueous solution) of the same compound?
A: 66%

Q: What about the dissolved concentration [6] of the same compound?
A: exceeded 20 w/v %

Q: Which “Maximum Plasma Concentration” value ([1]; 86 mg in 100 mL water orally, one subject, three tests, converted resveratrol concentration after glucuronidase/sulfatase treatment) does the source give for OC[C@H]1O[C@@H](Oc2cc(O)cc(/C=C/c3ccc(O)cc3)c2)[C@H](O)[C@@H](O)[C@@H]1O [Resveratrol 3-O-β-Glucoside, resveratrol 3-O-β-glucoside] here?
A: 282 ng/mL

Q: And the “Area under the Curve ((mg/L) · Hr)” value ([1]; 86 mg orally, 0 to 4 hours after ingestion, converted resveratrol concentration)?
A: 0.9 (mg/L) · Hr

Q: And the “Dissolved Concentration (w/v %) at 25° C.” value ([2]; Propylene Glycol:Water 0:100 (weight ratio))?
A: 0.04 w/v %

Q: And the “Dissolved Concentration (w/v %) at 25° C.” value ([2]; Propylene Glycol:Water 5:95 (weight ratio))?
A: 0.04 w/v %

Q: And the “Dissolved Concentration (w/v %) at 25° C.” value ([2]; Propylene Glycol:Water 10:90 (weight ratio))?
A: 0.06 w/v %

Q: What about the “Dissolved Concentration (w/v %) at 25° C.” value ([2]; Propylene Glycol:Water 15:85 (weight ratio)) of the same compound?
A: 0.09 w/v %

Q: What about the “Dissolved Concentration (w/v %) at 25° C.” value ([2]; Propylene Glycol:Water 20:80 (weight ratio)) of the same compound?
A: 0.1 w/v %

Q: What about the “Dissolved Concentration (w/v %) at 25° C.” value ([2]; Propylene Glycol:Water 25:75 (weight ratio)) of the same compound?
A: 0.2 w/v %

Q: And the “Dissolved Concentration (w/v %) at 25° C.” value ([2]; Propylene Glycol:Water 50:50 (weight ratio))?
A: 3.3 w/v %

Q: What about the “Dissolved Concentration (w/v %) at 25° C.” value ([2]; Propylene Glycol:Water 75:25 (weight ratio)) of the same compound?
A: 11.5 w/v %

Q: What about the “Dissolved Concentration (w/v %) at 25° C.” value ([2]; Propylene Glycol:Water 90:10 (weight ratio)) of the same compound?
A: 12.5 w/v %

Q: What about the “Dissolved Concentration (w/v %) at 25° C.” value ([2]; Propylene Glycol:Water 100:0 (weight ratio)) of the same compound?
A: 11.3 w/v %

Q: What about the “Dissolved Concentration (μg/mL) in Water” value (Solubility in water; water, 25° C., 20 hours) of the same compound?
A: 370 µg/mL

Q: What about the “Dissolved Concentration (w/v %) at 25° C.” value ([3]; Dipropylene Glycol:Water 0:100 (weight ratio)) of the same compound?
A: 0.04 w/v %

Q: What about the “Dissolved Concentration (w/v %) at 25° C.” value ([3]; Dipropylene Glycol:Water 5:95 (weight ratio)) of the same compound?
A: 0.06 w/v %

Q: What about the “Dissolved Concentration (w/v %) at 25° C.” value ([3]; Dipropylene Glycol:Water 10:90 (weight ratio)) of the same compound?
A: 0.1 w/v %

Q: What about the “Dissolved Concentration (w/v %) at 25° C.” value ([3]; Dipropylene Glycol:Water 15:85 (weight ratio)) of the same compound?
A: 0.3 w/v %

Q: What about the “Dissolved Concentration (w/v %) at 25° C.” value ([3]; Dipropylene Glycol:Water 20:80 (weight ratio)) of the same compound?
A: 0.5 w/v %

Q: And the “Dissolved Concentration (w/v %) at 25° C.” value ([3]; Dipropylene Glycol:Water 25:75 (weight ratio))?
A: 0.9 w/v %

Q: What about the “Dissolved Concentration (w/v %) at 25° C.” value ([3]; Dipropylene Glycol:Water 50:50 (weight ratio)) of the same compound?
A: 11.5 w/v %

Q: What about the “Dissolved Concentration (w/v %) at 25° C.” value ([3]; Dipropylene Glycol:Water 75:25 (weight ratio)) of the same compound?
A: 26.1 w/v %

Q: And the “Dissolved Concentration (w/v %) at 25° C.” value ([3]; Dipropylene Glycol:Water 90:10 (weight ratio))?
A: 23.9 w/v %

Q: And the “Dissolved Concentration (w/v %) at 25° C.” value ([3]; Dipropylene Glycol:Water 100:0 (weight ratio))?
A: 15.0 w/v %

Q: What about the “Dissolved Concentration (w/v %) at 25° C.” value ([4]; 1,2-Hexanediol:Water 0:100 (weight ratio)) of the same compound?
A: 0.04 w/v %

Q: What about the “Dissolved Concentration (w/v %) at 25° C.” value ([4]; 1,2-Hexanediol:Water 5:95 (weight ratio)) of the same compound?
A: 0.1 w/v %

Q: What about the “Dissolved Concentration (w/v %) at 25° C.” value ([4]; 1,2-Hexanediol:Water 10:90 (weight ratio)) of the same compound?
A: 0.5 w/v %

Q: And the “Dissolved Concentration (w/v %) at 25° C.” value ([4]; 1,2-Hexanediol:Water 25:75 (weight ratio))?
A: 2.6 w/v %

Q: And the “Dissolved Concentration (w/v %) at 25° C.” value ([4]; 1,2-Hexanediol:Water 50:50 (weight ratio))?
A: 6.5 w/v %

Q: What about the “Dissolved Concentration (w/v %) at 25° C.” value ([4]; 1,2-Hexanediol:Water 75:25 (weight ratio)) of the same compound?
A: 7.9 w/v %

Q: What about the “Dissolved Concentration (w/v %) at 25° C.” value ([4]; 1,2-Hexanediol:Water 90:10 (weight ratio)) of the same compound?
A: 10.7 w/v %

Q: What about the “Dissolved Concentration (w/v %) at 25° C.” value ([4]; 1,2-Hexanediol:Water 100:0 (weight ratio)) of the same compound?
A: 3.2 w/v %

Q: And the “MMP9 Gene Expression Ratio (%)” value [5, 7]?
A: 124%

Q: And the “Dissolved Concentration (w/v %) at 25° C.” value ([6]; Glycerol:Water 0:100 (weight ratio))?
A: 0.04 w/v %

Q: What about the “Dissolved Concentration (w/v %) at 25° C.” value ([6]; Glycerol:Water 10:90 (weight ratio)) of the same compound?
A: 0.05 w/v %

Q: What about the “Dissolved Concentration (w/v %) at 25° C.” value ([6]; Glycerol:Water 25:75 (weight ratio)) of the same compound?
A: 0.09 w/v %

Q: And the “Dissolved Concentration (w/v %) at 25° C.” value ([6]; Glycerol:Water 50:50 (weight ratio))?
A: 0.3 w/v %

Q: What about the “Dissolved Concentration (w/v %) at 25° C.” value ([6]; Glycerol:Water 75:25 (weight ratio)) of the same compound?
A: 1.1 w/v %

Q: And the “Dissolved Concentration (w/v %) at 25° C.” value ([6]; Glycerol:Water 90:10 (weight ratio))?
A: 1.9 w/v %

Q: What about the “Dissolved Concentration (w/v %) at 25° C.” value ([6]; Glycerol:Water 100:0 (weight ratio)) of the same compound?
A: 3.1 w/v %
